Source: patent publication US20230049952A1, “METHODS AND COMPOUNDS FOR RESTORING MUTANT P53 FUNCTION” (PMV Pharmaceuticals, Inc., priority 2020, published 2023)
Several values for one entry are separate records, joined by “and”; a condition that tells them apart may be missing. Equal values may be shown once. Values belong to the compound of their own block, whether it stands above or below them.

Assays:
[1] = in vitro
Experimental: All working solutions were freshly prepared similarly as described for the test article working solution.
Assay for determining Blood to plasma ratio: Pooled male CD-1 mouse, Sprague-Dawley rat, beagle dog and cynomolgus monkey plasma, and mixed gender human blood with EDTAK2 as anticoagulant were stored on wet ice and used the same day. […] After mixing thoroughly, 0.6 mL of spiked blood was transferred to a 96-well plate in triplicate. Concurrently, control compounds were spiked into each species blood in the same fashion to generate the final concentration of 2.0 μM.
The rest of the spiked blood samples were immediately placed into a humidified incubator with 5% CO2 at 37° C., with constant swiveling at 500 rpm for 60 min on a platform shaker. […] The T60-plasma samples for analysis were obtained by taking 50 μL of plasma from each well, mixed with 50 μL of blank blood and 100 μL of water, followed by addition of 600 μL stop solution. […] All the T0, T60-blood and T60-plasma samples were shaken vigorously at 800 rpm for 30 min followed by the centrifugation at 3220×g at 20° C. for 20 min. 100 μL aliquot of supernatant was diluted with 100 μL of water and mixed well for LC-MS/MS analysis.
Measurement of Hematocrit: The hematocrit (the volume percentage of erythrocytes in blood) was determined in triplicate for each species by centrifuging the blood samples with a HAEMATOKRIT 200 at 9440×g for 5 min.
Data analysis: The ratio of compound concentrations in whole blood over plasma (KB/P) and % Recovery in blood were calculated by the following equations: KB/P=[…]([T60-blood]/[T60-plasma]), where [T60-blood] is the peak area ratios of analyte/internal standard in whole blood sample at 60 min; [T60-plasma] is the peak area ratios of analyte/internal standard in plasma sample at 60 min; [T0-blood] is the peak area ratios of analyte/internal standard in whole blood sample at time zero.

[2] = Compound 2 and metabolites in rat plasma, 50 mg/kg PO QD×10; type: in vivo; conditions: for Average Concentration: rat plasma
Experimental: The proposed metabolite pathway was determined in vitro, and levels of potential metabolites were measured by LC/MS-MS in rat plasma remaining from the dose rising 10-day repeat dose study in rats. Six potential metabolites were quantified in the low (50 mg/kg) single dose rats. […] Rats were rotated between timepoints to form a composite PK curve. […] A 100 μL aliquot of the supernatant was transferred to the sample plate and mixed with 100 μL of water, then the plate was shaken at 800 rpm for 10 min. 0.5-2 μL supernatant was then injected into a Triple Quad 6500+ for LC-MS/MS analysis. The standard curve was generated at 1-3000 ng/mL for the compounds in rat plasma (EDTA-K2).
The male and female PK parameters were averaged together since there was <2-fold variation between the genders. All values deemed below the level of quantification (BLQ) were excluded from the PK parameters calculations.

[3] = tested on: NUGC-3_KO_p53i; assay: p53 pathway gene profiling, doxycycline-induced WT p53; type: cell-based, human; conditions: doxycycline 50 ng/ml
[4] = Compound 2 50 mg/kg PO QD×10, 72 h post tenth dose
[5] = Compound 2 50 mg/kg PO QD×10, 96 h post tenth dose
[6] = n=3, * basal expression level is low

recovery at 60 min, 2 μM ([1]; both, human): 90.8 ± 6.07% | recovery at 60 min, 2 μM ([1]; male, CD-1, mouse): 99.4 ± 1.7% | recovery at 60 min, 2 μM ([1]; male, Sprague-Dawley, rat): 100 ± 1.86% | recovery at 60 min, 2 μM ([1]; male, beagle, dog): 113 ± 3.57% | recovery at 60 min, 2 μM ([1]; male, cynomolgus monkey): 96.9 ± 1.83%
Compound: CCN(CC)CCCC(C)Nc1ccnc2cc(Cl)ccc12 (stereo not drawn) [Chloroquine, chloroquine]

calculated concentration in rat plasma (individual rats) ([2]; Compound 2 50 mg/kg PO QD×10, 48 h post tenth dose, 50 mg/kg): BLQ (4×) and 1.01 ng/mL and 1.21 ng/mL | calculated concentration in rat plasma (individual rats) [2, 4]: BLQ | calculated concentration in rat plasma (individual rats) [2, 5]: BLQ | % of Parent ([2]; Day 1, of Compound 2 AUC0-24, rat, 50 mg/kg PO): 1.6% | AUC0-24 ([2]; Day 1, rat, Compound 2 50 mg/kg PO): 1254 ng·h/mL | % of Parent ([2]; Day 10, of Compound 2 AUC0-last, rat, 50 mg/kg PO QD×10): 0.9% | AUC0-last ([2]; Day 10, rat, Compound 2 50 mg/kg PO QD×10): 1021 ng·h/mL | Average Concentration ([2]; Compound 2 50 mg/kg PO QD×1, 1 h): 18.64 ng/mL | Average Concentration ([2]; Compound 2 50 mg/kg PO QD×1, 2 h): 58.20 ng/mL | Average Concentration ([2]; Compound 2 50 mg/kg PO QD×1, 4 h): 58.42 ng/mL | Average Concentration ([2]; Compound 2 50 mg/kg PO QD×1, 8 h): 95.78 ng/mL | Average Concentration ([2]; Compound 2 50 mg/kg PO QD×1, 24 h): 1.88 ng/mL | Average Concentration ([2]; Compound 2 50 mg/kg PO QD×10, 1 h post tenth dose): 18.52 ng/mL | Average Concentration ([2]; Compound 2 50 mg/kg PO QD×10, 2 h post tenth dose): 29.98 ng/mL | Average Concentration ([2]; Compound 2 50 mg/kg PO QD×10, 4 h post tenth dose): 46.33 ng/mL | Average Concentration ([2]; Compound 2 50 mg/kg PO QD×10, 8 h post tenth dose): 74.30 ng/mL | Average Concentration ([2]; Compound 2 50 mg/kg PO QD×10, 24 h post tenth dose): 5.44 ng/mL | Average Concentration ([2]; Compound 2 50 mg/kg PO QD×10, 48 h post tenth dose): 1.11 ng/mL | Average Concentration [2, 4]: BLQ | Average Concentration [2, 5]: BLQ
Compound: CCn1c(C#CCNc2ccc(C)nc2)cc2cc(CNC3CCOCC3)ccc21 [Compound 8, 3-{1-Ethyl-5-[(tetrahydro-2H-pyran-4-ylamino)methyl]-1H-indol-2-yl}-1-(6-methyl-3-pyridylamino)-2-propyne]
calculated concentration in rat plasma (individual rats) ([2]; Compound 2 50 mg/kg PO QD×1, 1 h, 50 mg/kg): 28.5 ng/mL and 16.5 ng/mL and 13.4 ng/mL and 8.05 ng/mL and 22.8 ng/mL and 22.6 ng/mL | calculated concentration in rat plasma (individual rats) ([2]; Compound 2 50 mg/kg PO QD×1, 2 h, 50 mg/kg): 88.9 ng/mL and 36.3 ng/mL and 32.5 ng/mL and 78.0 ng/mL and 62.0 ng/mL and 51.5 ng/mL | calculated concentration in rat plasma (individual rats) ([2]; Compound 2 50 mg/kg PO QD×1, 4 h, 50 mg/kg): 84.8 ng/mL and 81.1 ng/mL and 34.9 ng/mL and 38.5 ng/mL and 52.9 ng/mL and 58.3 ng/mL | calculated concentration in rat plasma (individual rats) ([2]; Compound 2 50 mg/kg PO QD×1, 8 h, 50 mg/kg): 77.5 ng/mL and 46.5 ng/mL and 86.3 ng/mL and 203 ng/mL and 87.6 ng/mL and 73.8 ng/mL | calculated concentration in rat plasma (individual rats) ([2]; Compound 2 50 mg/kg PO QD×1, 24 h, 50 mg/kg): 2.71 ng/mL and 1.20 ng/mL and 1.36 ng/mL and 2.31 ng/mL and 2.43 ng/mL and 1.25 ng/mL | calculated concentration in rat plasma (individual rats) ([2]; Compound 2 50 mg/kg PO QD×10, 1 h post tenth dose, 50 mg/kg): 16.5 ng/mL and 6.52 ng/mL and 10.4 ng/mL and 6.59 ng/mL and 46.7 ng/mL and 24.4 ng/mL | calculated concentration in rat plasma (individual rats) ([2]; Compound 2 50 mg/kg PO QD×10, 2 h post tenth dose, 50 mg/kg): 14.6 ng/mL and 17.1 ng/mL and 27.6 ng/mL and 38.9 ng/mL and 57.5 ng/mL and 24.2 ng/mL | calculated concentration in rat plasma (individual rats) ([2]; Compound 2 50 mg/kg PO QD×10, 4 h post tenth dose, 50 mg/kg): 39.0 ng/mL and 39.4 ng/mL and 22.5 ng/mL and 92.1 ng/mL and 65.1 ng/mL and 19.9 ng/mL | calculated concentration in rat plasma (individual rats) ([2]; Compound 2 50 mg/kg PO QD×10, 8 h post tenth dose, 50 mg/kg): 29.5 ng/mL and 35.5 ng/mL and 57.2 ng/mL and 121 ng/mL and 135 ng/mL and 67.6 ng/mL | calculated concentration in rat plasma (individual rats) ([2]; Compound 2 50 mg/kg PO QD×10, 24 h post tenth dose, 50 mg/kg): 1.63 ng/mL and 2.61 ng/mL and 2.12 ng/mL and 10.6 ng/mL and 7.70 ng/mL and 8.00 ng/mL

Compound: C[C@H]1c2cccc(O)c2C(=O)C2=C(O)[C@]3(O)C(=O)C(C(N)=O)=C(O)[C@@H](N(C)C)[C@@H]3[C@@H](O)[C@@H]21 [Doxycycline]
APAF1 fold change ([3]; n=3): 2.40 ± 0.16 fold | BAX fold change ([3]; n=3): 2.85 ± 0.08 fold | BBC3 fold change ([3]; n=3): 2.46 ± 0.06 fold | BIRC5 fold change ([3]; n=3): 0.52 ± 0.03 fold | BRCA1 fold change ([3]; n=3): 0.67 ± 0.03 fold | BRCA2 fold change ([3]; n=3): 0.74 ± 0.02 fold | CCNB1 fold change ([3]; n=3): 0.57 ± 0.01 fold | CCNE 1 fold change ([3]; n=3): 0.70 ± 0.01 fold | CCNG 1 fold change ([3]; n=3): 1.65 ± 0.05 fold | CDC25A fold change ([3]; n=3): 0.61 ± 0.04 fold | CDC25C fold change ([3]; n=3): 0.58 ± 0.02 fold | CDK1 fold change ([3]; n=3): 0.71 ± 0.01 fold | CDKN1A fold change ([3]; n=3): 37.37 ± 0.55 fold | CHEK1 fold change ([3]; n=3): 0.71 ± 0.02 fold | CHEK2 fold change ([3]; n=3): 0.74 ± 0.01 fold | DNMT1 fold change ([3]; n=3): 0.78 ± 0.03 fold | E2F1 fold change ([3]; n=3): 0.63 ± 0.02 fold | FAS fold change ([3]; n=3): 7.34 ± 0.04 fold | GADD45A fold change ([3]; n=3): 3.68 ± 0.20 fold | MDM2 fold change ([3]; n=3): 12.97 ± 0.29 fold | MSH2 fold change ([3]; n=3): 0.70 ± 0.02 fold | PIDD1 fold change ([3]; n=3): 2.75 ± 0.05 fold | PPM1D fold change ([3]; n=3): 2.21 ± 0.10 fold | PRC1 fold change ([3]; n=3): 0.64 ± 0.01 fold | SESN2 fold change ([3]; n=3): 2.50 ± 0.12 fold | TNFRSF10B fold change ([3]; n=3): 1.88 ± 0.04 fold | TNFRSF10D fold change ([3]; n=3): 2.73 ± 0.04 fold | TP53 fold change ([3]; n=3): 25.95 ± 0.84 fold | BTG2* fold change [3, 6]: 27.82 ± 2.42 fold | EGR1* fold change [3, 6]: 4.40 ± 0.50 fold | IL6* fold change [3, 6]: 1.23 ± 0.01 fold
